Reference: patent publication US20130302247A1, “SYNTHESIS OF FLUOROARACHIDONIC ACID AND METHODS OF USE THEREOF” (The United States of America, as represented by the …, priority 2012, published 2013)

What was measured:
[1] = Incorporation of [19F]FAA into brain lipids of unanesthetized mice (GC/MS, in vivo kinetic infusion model); parameters: species or system C57BL/6J male mice
Protocol: (§1) The plasma and brain kinetics of the purified [^19F]FAA were tested in unanesthetized adult C57BL/6J male mice. The study was conducted following the National Institutes of Health Guidelines for the Care and Use of Laboratory Animals (Publication no. 80-23) and was approved by the Animal Care and Use Committee of the Eunice Kennedy Shriver National Institute of Child Health and Human Development. Male C57BL/6J mice were obtained at the age of 2-3 months. The mice were maintained in an animal facility in which temperature, humidity, and light cycle were regulated with free access to water and a fixed diet (Rodent NIH-07) that contained (as fractional percent of total fatty acids), 30.6% saturated, 22.5% monounsaturated, […], 4.9% α-linolenic, 0.2% AA, 1.6% eicosapentaenoic, and 2.2% docosahexaenoic acid.
At 4-5 months of age, a mouse was anesthetized with […], and polyethylene catheters were inserted into the femoral artery and vein. The mouse was allowed to recover from surgery in an environment maintained at 25° C., with its hindquarters loosely wrapped and taped to a wooden block. During recovery, body temperature was maintained at 37° C. by means of a rectal probe and a heating element (Indicating Temperature Controller; Yellow Springs Instrument). After 3 h of recovery, the unanesthetized mouse was infused intravenously for 5 min with 130 μl HEPES buffer (pH 7.4) containing 50 mg/ml fatty acid-free bovine serum albumin (BSA, Sigma), or 0.1 mg or 0.5 mg 20-fluoroarachidonic acid (20-FAA) dissolved in HEPES-BSA at a rate of 0.0223 (1+e^−0.32t) ml/min (t in seconds), using a computer-controlled variable rate infusion pump (No. 22; Harvard Apparatus). During infusion, timed arterial blood samples (˜20 μl) were collected in polyethylene-heparin lithium fluoride-coated Beckman centrifuge tubes at 0, 0.25, 0.5, 1.0, 1.5, 3.0, and 4.0 min, and 150 μl was collected at 4.9 min. Plasma samples were separated by centrifuging at 13,000 rpm for 1 min, and stored at −80° C. until they were analyzed. At 5 min, the mouse was anesthetized with sodium pentobarbital (50 mg/kg, i.v.) and subjected to head-focused microwave irradiation (5.5 kW, 0.9 s, 75% power output; Cober Electronics) to stop brain fatty acid metabolism (27). The brain was excised, dissected sagittally and stored at −80° C. until analysis.
Total lipids were extracted from plasma (7-10 μl) and from half brain (˜0.2 g) by the method of Folch et al (28). Heptadecanoic acid (17:0) was added as an internal standard to plasma prior to extraction. Total lipid extracts were separated by thin layer chromatography (TLC) on silica gel plates (Silica Gel 60A TLC plates; Whatman) that were pre-washed with chloroform/methanol (2:1 v/v) and activated by heating at 100° C. Neutral lipid subclasses including phospholipids (PLs), unesterified fatty acids (UFAs), triglycerides (TGs) and cholesteryl esters (CEs) were separated using a mixture of heptane:diethyl ether:glacial acetic acid (60:40:3 by volume) (29), and authentic PL, cholesterol, UFA, TG and CE standards were run in separate lanes to identify the bands. Phospholipid classes (EtnGpl, ethanolamine glycerophospholipid; ChoGpl, choline glycerophospholipid; PtdIns, phosphatidylinositol; PtdSer, phosphatidylserine) were separated in chloroform:methanol:H2O:glacial acetic acid (60:50:4:1 by volume) (30) and identified with authentic standards in separate lanes. The plates were sprayed with 0.03% (w/v) 6-p-toluidine-2-naphthalene sulfonic acid (Acros) in 50 mM Tris-HCl buffer (pH 7.4), and the lipid bands were visualized under UV light. Each band was scraped into tubes containing di-17:0 PC for quantifying PL, CE, TG, EtnGpl, ChoGpl, PtdIns and PtdSer lipid fractions, or 17:0 heptadecaenoic acid to quantify brain UFAs. Toluene (0.2 ml) was added to each tube. The UFAs were extracted from the scraped silica using 2:1 chloroform/methanol and 1.5 ml of 0.1 M KCl, dried and derivitized as described below. […]

[2] = Plasma kinetics of FAA during 5-min intravenous infusion in unanesthetized mice; format: in vivo, C57BL/6J male mice; settings: 5-minute intravenous infusion; for plasma area under the curve: mice
Protocol: as §1
At 4-5 months of age, a mouse was anesthetized with […], and polyethylene catheters were inserted into the femoral artery and vein. The mouse was allowed to recover from surgery in an environment maintained at 25° C., with its hindquarters loosely wrapped and taped to a wooden block. During recovery, body temperature was maintained at 37° C. by means of a rectal probe and a heating element (Indicating Temperature Controller; Yellow Springs Instrument). […] Plasma samples were separated by centrifuging at 13,000 rpm for 1 min, and stored at −80° C. until they were analyzed. […]
Total lipids were extracted from plasma (7-10 μl) and from half brain (˜0.2 g) by the method of Folch et al (28). […] Each band was scraped into tubes containing di-17:0 PC for quantifying PL, CE, TG, EtnGpl, ChoGpl, PtdIns and PtdSer lipid fractions, or 17:0 heptadecaenoic acid to quantify brain UFAs. […]

[3] = mouse, intravenously injected, from ref (2); cited from earlier work
[4] = mouse brain, 5-min i.v. infusion, mean±SD, n=3

Row | FAA detected in brain unesterified fatty acid, triglyceride and cholesteryl ester fractions ([1]; end of 5-min infusion, mouse brain) | k* values, brain ChoGpl [1, 4] | k* values, brain EtnGpl [1, 4] | k* values, brain PtdIns [1, 4] | k* values, brain PtdSer [1, 4] | k* values, brain Total lipid [1, 4] | plasma area under the curve ([2]; high dose (1.6 nmol)) | plasma area under the curve ([2]; low dose (0.3 nmol)) | SMILES | FAA concentration within brain phospholipids (rank order) ([1]; both doses, end of 5-min infusion, FIG. 2-A) | incorporation coefficient k*, high versus low dose ([1]; mouse brain lipids, FIG. 3) | distribution of FAA in each phospholipid fraction, percentage of FAA in total phospholipid (rank order) ([1]; mouse brain, FIG. 2-B, p<0.01) | FAA concentration in plasma over time ([2]; 0.3 or 1.6 nmol, FIG. 1) | Published k* values, brain ChoGpl [3] | Published k* values, brain EtnGpl [3] | Published k* values, brain PtdIns [3] | Published k* values, brain PtdSer [3] | Published k* values, brain Total lipid [3]
1 | < 0.01 nmol/g | 6.8 ± 2.6 ml/s/g × 10^4 | 2.8 ± 0.4 ml/s/g × 10^4 | 8.6 ± 1.3 ml/s/g × 10^4 | 0.4 ± 0.1 ml/s/g × 10^4 | 15.0 ± 2.3 ml/s/g × 10^4 | 0.236 ± 0.0189 µM·h | 0.0297 ± 0.0217 µM·h | O=C(O)CCC/C=C\C/C=C\C/C=C\C/C=C\CCCCCF [FAA, 20-Fluoroarachidonic acid] | highest in PtdIns and ChoGpl, followed by EtnGpl and PtdSer | lower for the high infusion dose than the low dose | highest in ChoGlp, followed by PtdIns, EtnGlp and PtdSer | increased over time in a dose-dependent manner |  |  |  |  | 
2 |  |  |  |  |  |  |  |  | CCCCC/C=C\C/C=C\C/C=C\C/C=C\CCCC(=O)O [[1-^14C]AA] |  |  |  |  | 5.9 ± 1.4 ml/s/g × 10^4 | 5.7 ± 1.0 ml/s/g × 10^4 | 6.8 ± 0.8 ml/s/g × 10^4 | 1.8 ± 0.5 ml/s/g × 10^4 | 22.6 ± 1.3 ml/s/g × 10^4
